Measured values as given in ChEMBL document CHEMBL1121755, “Comparison of the inhibition of methotrexate-sensitive and -resistant Lactobacillus casei cell cultures with purified Lactobacillus casei dihydrofolate reductase by 4,6-diamino-1,2-dihydro-2,2-dimethyl-1-(3-substituted-phenyl)-s-triazines. Use of quantitative structure-activity relationships in …” (1981).

molecular target: Dihydrofolate reductase (Lactobacillus casei) (UniProt P00381); details: Lacticaseibacillus casei
Sequence (P00381 whole entry): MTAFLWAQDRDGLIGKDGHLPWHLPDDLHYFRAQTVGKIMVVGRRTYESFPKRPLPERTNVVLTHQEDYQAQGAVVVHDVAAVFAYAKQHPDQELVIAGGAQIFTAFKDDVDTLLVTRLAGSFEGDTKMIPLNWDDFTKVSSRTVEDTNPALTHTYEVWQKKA
Description: Inhibitory activity against Lactobacillus casei dihydrofolate reductase (DHFR)

log 1/Ki app | SMILES
4.74 | CC1(C)N=C(N)N=C(N)N1c1cccc(CNc2cc(C(N)=O)cc(C(N)=O)c2)c1
4.81 | CCCCCCCCCCCCCOc1cccc(N2C(N)=NC(N)=NC2(C)C)c1
4.1 | CC1(C)N=C(N)N=C(N)N1c1cccc(OCCOc2cccc(C(F)(F)F)c2)c1
5.31 | CC1(C)N=C(N)N=C(N)N1c1cccc(COc2cccc(C#N)c2)c1
5.41 | CC(C)c1cccc(OCc2cccc(N3C(N)=NC(N)=NC3(C)C)c2)c1
3.21 | CCOC(=O)c1cccc(N2C(N)=NC(N)=NC2(C)C)c1
4.5 | CCCCCCCCCCCCCCOc1cccc(N2C(N)=NC(N)=NC2(C)C)c1
5.44 | CC1(C)N=C(N)N=C(N)N1c1cccc(COc2ccccc2)c1
4.79 | CC1(C)N=C(N)N=C(N)N1c1cccc(OCCCCOc2cccc(C(F)(F)F)c2)c1
4.2 | CC1(C)N=C(N)N=C(N)N1c1cccc(OCc2ccccc2)c1
3.07 | Cc1cccc(N2C(N)=NC(N)=NC2(C)C)c1
3.56 | CC1(C)N=C(N)N=C(N)N1c1cccc([N+](=O)[O-])c1
5.45 | CC1(C)N=C(N)N=C(N)N1c1cccc(COc2cccc(CO)c2)c1
4.79 | CC1(C)N=C(N)N=C(N)N1c1cccc(OCCCCOc2ccccc2)c1
2.87 | CC(=O)c1cccc(N2C(N)=NC(N)=NC2(C)C)c1
4.36 | CC1(C)N=C(N)N=C(N)N1c1cccc(COc2cccc(NC(=N)S)c2)c1
3.74 | CC1(C)N=C(N)N=C(N)N1c1cccc(OCCOc2ccccc2)c1

log 1/Ki app | SMILES
3.29 | CC1(C)N=C(N)N=C(N)N1c1cccc(F)c1
5.56 | COc1cccc(OCc2cccc(N3C(N)=NC(N)=NC3(C)C)c2)c1
3.73 | CC1(C)N=C(N)N=C(N)N1c1cccc(I)c1
5.44 | CC(C)(C)c1cccc(OCc2cccc(N3C(N)=NC(N)=NC3(C)C)c2)c1
4.96 | CCCCCCc1cccc(N2C(N)=NC(N)=NC2(C)C)c1
4.54 | CCCCCCCCCCCOc1cccc(N2C(N)=NC(N)=NC2(C)C)c1
4.63 | CCCCCCCCCCCCOc1cccc(N2C(N)=NC(N)=NC2(C)C)c1
4.41 | CC1(C)N=C(N)N=C(N)N1c1cccc(OCc2ccc(Cl)c(Cl)c2)c1
5.33 | Cc1cccc(OCc2cccc(N3C(N)=NC(N)=NC3(C)C)c2)c1
3.69 | CC1(C)N=C(N)N=C(N)N1c1cccc(Br)c1
5.45 | CC(=O)Nc1cccc(OCc2cccc(N3C(N)=NC(N)=NC3(C)C)c2)c1
4.2 | CCCCOc1cccc(N2C(N)=NC(N)=NC2(C)C)c1
5.31 | CCc1cccc(OCc2cccc(N3C(N)=NC(N)=NC3(C)C)c2)c1
3.2 | CC(C)(C)c1cccc(N2C(N)=NC(N)=NC2(C)C)c1
5.36 | CC1(C)N=C(N)N=C(N)N1c1cccc(COc2cccc(NC(N)=O)c2)c1
4.71 | CCCCCCCCCOc1cccc(N2C(N)=NC(N)=NC2(C)C)c1
5.41 | CC1(C)N=C(N)N=C(N)N1c1cccc(COc2cccc(Cl)c2)c1

SMILES | log 1/Ki app
CC1(C)N=C(N)N=C(N)N1c1cccc(S(=O)(=O)F)c1 | 3.21
